Reference: patent publication US20190307749A1, “Mitochondria-Division Inhibitor 1 Protects Against Amyloid-B Induced Mitochondrial Fragmentation and Synaptic Damage in Alzheimer's Disease” (Texas Tech University System, priority 2018, published 2019)
Entries after “also recorded” stand apart in the source; their conditions may differ.

Columns and labels:
[1] = system: mouse neuroblastoma (N2a) cells; experiment: Immunoblotting analysis of mitochondrial dynamics, biogenesis and synaptic proteins; format: cell-based
Experimental: (§1) Tissue culture: The N2a cells were grown for 3 days in a serum-free medium (1:1 mixture of DMEM and OptiMEM, plus penicillin and streptomycin [Invitrogen, Carlsbad, Calif., USA]) until the cells developed neuronal processes.
[…] of protein was resolved from each group of cells on a 4-12% Nu-PAGE gel (Invitrogen). The resolved proteins were transferred to […] (Novax Inc., San Diego, Calif., USA) and were then incubated for 1 hour at room temperature with a blocking buffer (5% dry milk dissolved in a TBST buffer). The PVDF membranes were incubated overnight with primary antibodies (see Table 2) and washed 3 times with a TBST buffer at 10-minute intervals. They were then incubated for 2 hours with appropriate secondary antibodies, followed by 3 additional washes at 10-minute intervals. Mitochondrial and synaptic proteins were detected with cheminilumniscence reagents (Pierce Biotechnology, Rockford, Ill., USA), and the bands from immunoblots were quantified on a Kodak scanner, following manufacturer's instructions (ID Image Analysis Software, Kodak Digital Science, Kennesaw, Ga., USA), and the gel images were analyzed from gel images captured with a Kodak digital science CD camera. The lanes were marked to define the positions and specific regions of the bands. An ID fine-band command was used to locate and to scan the bands in each lane and to record the readings.

N2a cells [2] = experiment: Soluble Aβ42 levels by sandwich ELISA; format: cell-based, mouse; conditions: vs N2a cells treated only with Aβ42
Experimental: as §1
Briefly, protein lysates from untreated control N2a cells and lysates from 4 treatment groups were homogenized in a Tris-buffered saline (pH 8.0) containing protease inhibitors ([…] pepstatin A, aprotinin, phophsoramidon, and leupeptin; 0.5 mM phenylmethanesulfonyl fluoride and 1 mM ethyleneglycol-bis(flaminoethyl ether)-NN tetraacetic acid). Samples were sonicated briefly and centrifuged at 10,000 g for 20 min at 4° C. The soluble fraction was used to determine the soluble Aβ by ELISA. For each sample, Aβ1-40 and Aβ1-42 were measured with commercial colorimetric ELISA kits (Biosource International, Camarillo, Calif., USA) that were specific for each species. A 96-well plate reader was used, following the manufacturer's instructions. Each sample was run in duplicate. Protein concentrations of the homogenates were determined following the […], and Aβ was expressed as pg Aβ/mg protein.

N2a cell mitochondria = experiment: Mitochondrial ATP levels (luciferase bioluminescence); format: cell-based, mouse; conditions: N2a cells
Experimental: as §1
ATP levels: ATP levels were measured in N2a cell mitochondria from the treatment groups using an ATP determination kit (Molecular Probes). A bioluminescence assay was used, based on the reaction of ATP with recombinant firefly luciferase and its substract luciferin. Luciferase catalyzes the formation of light from ATP and luciferin. It is the emitted light that is linearly related to the concentration of ATP, which is measured with a luminometer. ATP levels were measured from mitochondrial pellets using a standard curve method.

N2a cells [3] = experiment: Cytochrome c oxidase activity; format: cell-based, mouse
Experimental: as §1
Cytochrome c oxidase activity: Cytochrome oxidase activity was measured in each of the 5 groups of N2a cells. Enzyme activity was assayed spectrophotometrically using a Sigma Kit (Sigma-Aldrich) following manufacturer's instructions. […] The decrease in absorbance at […] was recorded for 1-min reactions at 10-sec intervals. Cytochrome oxidase activity was measured according to the following formula: mU/mg total mitochondrial protein=(A/min sample−(A/min blank)×1.1 mg protein×21.84). The protein concentrations were determined following the BCA method.

GTPase Drp1 = conditions: by blocking the self-assembly of Drp1; reference [34]; cited from earlier work
[4] = Aβ42 6 hrs then Mdivi1 24 hrs (Aβ42+Mdivi1), vs Aβ42 treated cells
[5] = Aβ42 6 hrs then Mdivi1 24 hrs (Aβ42+Mdivi1), vs untreated N2a cells
[6] = Mdivi1 24 hrs or Aβ42 20 μM 6 hrs alone, vs untreated N2a cells
[7] = Mdivi1 24 hrs then Aβ42 6 hrs (Mdivi1+Aβ42), vs Aβ42 treated cells
[8] = Mdivi1 24 hrs then Aβ42 6 hrs (Mdivi1+Aβ42), vs untreated N2a cells

With `COc1cc(-n2c(S)nc3ccccc3c2=O)c(Cl)cc1Cl` [Mdivi1, 3-(2,4-Dichloro-5-methoxyphenyl)-2,3-dihydro-2-thioxo-4(1H)-quinazolinone] the Drp1 protein level [1, 4] was “significantly lower”, the Fis1 protein level [1, 4] was “significantly lower” and the Mfn1 protein level [1, 4] was “significantly higher”. For the same molecule, the Mfn2 protein level [1, 4] was “significantly higher”, the Nrf1 protein level [1, 4] was “significantly higher” and the Opa1 protein level [1, 4] was “significantly higher”. For the same molecule, the PGC1α protein level [1, 4] was “significantly higher”, the PSD95 protein level [1, 4] was “significantly higher” and the Synaptophysin protein level [1, 4] was “significantly higher”. For the same molecule, the TFAM protein level [1, 4] was “significantly higher”, the Drp1 protein level [1, 5] was “Unchanged” and the Fis1 protein level [1, 5] was “Unchanged”. The Drp1 protein level [1, 6] was “significantly lower”, the Fis1 protein level [1, 6] was “significantly lower” and the Mfn1 protein level [1, 6] was “significantly higher”. For the same molecule, the Mfn2 protein level [1, 6] was “significantly higher”, the Nrf2 protein level [1, 6] was “significantly higher” and the Opa1 protein level [1, 6] was “significantly higher”. For the same molecule, the PGC1α protein level [1, 6] was “significantly higher”, the TFAM protein level [1, 6] was “significantly higher” and the Drp1 protein level [1, 7] was “significantly lower”. The Fis1 protein level [1, 7] was “significantly lower”, the Mfn1 protein level [1, 7] was “significantly higher” and the Mfn2 protein level [1, 7] was “significantly higher”. For the same molecule, the Nrf1 protein level [1, 7] was “significantly higher”, the Nrf2 protein level [1, 7] was “significantly higher” and the Opa1 protein level [1, 7] was “significantly higher”. The PGC1α protein level [1, 7] was “significantly higher”, the PSD95 protein level [1, 7] was “significantly higher” and the Synaptophysin protein level [1, 7] was “significantly higher”. For the same molecule, the TFAM protein level [1, 7] was “significantly higher”, the Drp1 protein level [1, 8] was “unchanged” and the Fis1 protein level [1, 8] was “unchanged”. For the same molecule, the Aβ42 levels (N2a cells [2]; Aβ42 6 hrs then Mdivi1 24 hrs (Aβ42+Mdivi1, curative)) was “Significantly reduced; also recorded: significantly lower”, the Aβ42 levels (N2a cells [2]; Mdivi1 24 hrs then Aβ42 6 hrs (Mdivi1+Aβ42, preventive)) was “Significantly reduced; also recorded: significantly lower” and the “Mitochondrial ATP levels” value (N2a cell mitochondria; Aβ42 6 hrs then Mdivi1 24 hrs (Aβ42+Mdivi1), vs Aβ42-treated N2a cells (FIG. 7B)) was “Significantly higher”. The “Mitochondrial ATP levels” value (N2a cell mitochondria; [6]) was “Significantly increased”, the “Mitochondrial ATP levels” value (N2a cell mitochondria; Mdivi1 24 hrs then Aβ42 6 hrs (Mdivi1+Aβ42), vs Aβ42-treated N2a cells (FIG. 7B)) was “Significantly higher” and the Cytochrome oxidase activity (N2a cells [3]; Aβ42 6 hrs then Mdivi1 24 hrs (Aβ42+Mdivi1), vs cells treated with Aβ42 alone) was “significantly increased”. The Cytochrome oxidase activity (N2a cells [3]; [5]) was “increased levels”, the Cytochrome oxidase activity (N2a cells [3]; [6]) was “increased levels” and the Cytochrome oxidase activity (N2a cells [3]; Mdivi1 24 hrs then Aβ42 6 hrs (Mdivi1+Aβ42), vs cells treated with Aβ42 alone) was “significantly increased”. The Cytochrome oxidase activity (N2a cells [3]; [8]) was “increased levels” and the “GTPase Drp1 activity” value (GTPase Drp1) was “inhibits”.
